The values that follow are results of earlier work, collected in patent US11478522B2, “Synergistic herbal compositions with prebiotic properties for treatment of acne” (KAMEDIS LTD., priority 2016, dated 2022).

One data set deals with enzyme 11β-HSD1 (Homo sapiens, UniProt P28845).
For a further data set, the target named is NLRP3 inflammasome (Homo sapiens, UniProt Q96P20).
Chain of NLRP3 inflammasome (Q96P20 whole entry): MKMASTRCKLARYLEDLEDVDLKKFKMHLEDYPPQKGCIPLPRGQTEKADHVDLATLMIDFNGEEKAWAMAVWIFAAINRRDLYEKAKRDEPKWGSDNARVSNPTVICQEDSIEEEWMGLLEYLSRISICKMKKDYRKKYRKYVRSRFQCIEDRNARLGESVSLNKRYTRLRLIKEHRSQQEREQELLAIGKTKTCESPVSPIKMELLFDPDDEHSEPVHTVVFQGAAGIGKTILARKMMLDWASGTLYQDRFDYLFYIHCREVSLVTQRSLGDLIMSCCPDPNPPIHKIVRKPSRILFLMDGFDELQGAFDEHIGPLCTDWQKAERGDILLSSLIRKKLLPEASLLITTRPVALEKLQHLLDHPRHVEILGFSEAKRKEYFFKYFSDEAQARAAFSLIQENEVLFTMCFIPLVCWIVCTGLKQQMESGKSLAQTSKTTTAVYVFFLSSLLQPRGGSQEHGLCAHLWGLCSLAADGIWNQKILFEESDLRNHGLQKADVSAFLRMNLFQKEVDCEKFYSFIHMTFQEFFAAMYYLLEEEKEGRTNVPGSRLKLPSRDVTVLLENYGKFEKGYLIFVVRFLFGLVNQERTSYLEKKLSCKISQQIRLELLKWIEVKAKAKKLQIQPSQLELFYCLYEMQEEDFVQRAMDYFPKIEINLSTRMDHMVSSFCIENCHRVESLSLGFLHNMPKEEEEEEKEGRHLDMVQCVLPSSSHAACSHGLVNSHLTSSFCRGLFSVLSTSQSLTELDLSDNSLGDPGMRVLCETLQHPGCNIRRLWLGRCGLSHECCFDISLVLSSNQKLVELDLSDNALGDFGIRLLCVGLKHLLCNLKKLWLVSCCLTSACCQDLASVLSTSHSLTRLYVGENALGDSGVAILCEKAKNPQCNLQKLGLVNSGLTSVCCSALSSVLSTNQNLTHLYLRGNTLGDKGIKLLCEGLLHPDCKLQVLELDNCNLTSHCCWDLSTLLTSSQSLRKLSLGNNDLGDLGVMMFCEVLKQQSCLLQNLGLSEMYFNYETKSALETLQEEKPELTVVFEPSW

Chain of enzyme 11β-HSD1 (P28845 whole entry, species assumed): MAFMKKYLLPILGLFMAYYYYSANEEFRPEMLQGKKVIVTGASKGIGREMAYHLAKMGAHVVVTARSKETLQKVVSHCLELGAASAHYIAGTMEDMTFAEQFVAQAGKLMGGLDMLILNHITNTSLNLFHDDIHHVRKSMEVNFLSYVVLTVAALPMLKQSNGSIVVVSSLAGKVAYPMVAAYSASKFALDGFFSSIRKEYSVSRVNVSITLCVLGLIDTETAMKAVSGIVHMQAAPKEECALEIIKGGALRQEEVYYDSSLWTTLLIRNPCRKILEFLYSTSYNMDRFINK

With `Cc1cc(O)c2c(c1)C(=O)c1cc(O)cc(O)c1C2=O` [emodin], the “inhibition of the enzyme 11β-HSD1” value at enzyme 11β-HSD1 is “effective and selective as inhibitors”. Further, the NLRP3 inflammasome activation result on NLRP3 inflammasome was “attenuate NLRP3 inflammasome activation”.
